# Experiments:
# AVEFA [1] = test: Pre-emergence herbicidal action against AVEFA; type: in vivo, Avena fatua; conditions: pre-emergence
# Outline: (§1)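 Pre-emergence soil-surface spray of formulated compound (WP or EC; 600 to 800 l/ha; 0.2% wetting agent) over seeds sown in sandy loam. After 3 weeks under greenhouse conditions, damage is estimated visually in percent against untreated plants.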
# HORMU = test: Pre-emergence herbicidal action against HORMU; type: in vivo, Hordeum murinum; conditions: 80 g/ha, pre-emergence
# Text: Seeds of monocotyledonous and dicotyledonous weed plants and crop plants are laid out in sandy loam soil in wood-fiber pots and covered with soil. The compounds of the invention, formulated in the form of wettable powders (WP) or as emulsion concentrates (EC), are then applied to the surface of the covering soil in the form of an aqueous suspension or emulsion at a water application rate equivalent to 600 to 800 l/ha, with addition of 0.2% wetting agent. After the treatment, the pots are placed in a greenhouse and kept under good growth conditions for the trial plants. The damage to the test plants is scored visually after a test period of 3 weeks by comparison with untreated controls (herbicidal activity in percent (%): 100% activity=the plants have died, 0% activity=like control plants). […] The tables below illustrate, in an illustrative manner, the post-emergence herbicidal action of the compounds of the invention, the herbicidal activity being stated in percent.
# ALOMY [2] = test: Post-emergence herbicidal action against ALOMY; type: in vivo, Alopecurus myosuroides; conditions: Alopecurus myosuroides, 504 h, dosage 20 g/ha, visual assessment about 3 weeks after treatment vs untreated controls
# Outline: (§2)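 Greenhouse plants in sandy loam were sprayed at the one-leaf stage, 2 to 3 weeks after sowing, with WP or EC formulations as aqueous suspension or emulsion (600 to 800 l/ha water, 0.2% wetting agent). Visual damage was scored about 3 weeks later versus untreated controls, 0% = like control, 100% = dead.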
# AMARE [3] = test: Pre-emergence herbicidal action against AMARE; type: in vivo, Amaranthus retroflexus
# Outline: as §1
# DIGSA [4] = test: Post-emergence herbicidal action against DIGSA; type: in vivo, Digitaria sanguinalis; conditions: Digitaria sanguinalis, 504 h
# Outline: as §2
# STEME [5] = test: Post-emergence herbicidal action against STEME; type: in vivo, Stellaria media
# Outline: as §2
# AMARE [6] = test: Post-emergence herbicidal action against AMARE; type: in vivo, Amaranthus retroflexus; conditions: 20 g/ha, visual assessment about 3 weeks after treatment, 100% = plants have died, 0% = like control plants
# Outline: as §2
# SETVI [7] = test: Pre-emergence herbicidal action against SETVI; type: in vivo, Setaria viridis; conditions: Setaria viridis, 504 h
# Outline: as §1
# ABUTH [8] = test: Post-emergence herbicidal action against ABUTH; type: in vivo, Abutilon theophrasti; conditions: visual assessment about 3 weeks after treatment vs untreated controls
# Outline: as §2
# PHBPU [9] = test: Post-emergence herbicidal action against PHBPU; type: in vivo, Pharbitis purpurea; conditions: Ipomoea purpurea, 504 h
# Outline: as §2
# SETVI [10] = test: Post-emergence herbicidal action against SETVI; type: in vivo, Setaria viridis; conditions: Setaria viridis, 504 h
# Outline: as §2
# MATIN [11] = test: Pre-emergence herbicidal action against MATIN; type: in vivo, Matricaria inodora
# Outline: as §1
# ECHCG = test: Pre-emergence herbicidal action against ECHCG; type: in vivo, Echinochloa crus-galli; conditions: 80 g/ha
# Outline: as §1
# AVEFA [12] = test: Post-emergence herbicidal action against AVEFA; type: in vivo, Avena fatua; conditions: 20 g/ha, visual assessment about 3 weeks after treatment, 100% = plants have died, 0% = like control plants
# Outline: as §2
# ABUTH [13] = test: Pre-emergence herbicidal action against ABUTH; type: in vivo, Abutilon theophrasti
# Outline: as §1
# DIGSA [14] = test: Pre-emergence herbicidal action against DIGSA; type: in vivo, Digitaria sanguinalis
# Outline: as §1
# MATIN [15] = test: Post-emergence herbicidal action against MATIN; type: in vivo, Matricaria inodora; conditions: dosage 20 g/ha
# Outline: as §2
# VIOTR [16] = test: Pre-emergence herbicidal action against VIOTR; type: in vivo, Viola tricolor
# Outline: as §1
# VERPE [17] = test: Post-emergence herbicidal action against VERPE; type: in vivo, Veronica persica; conditions: 20 g/ha
# Outline: as §2
# ALOMY [18] = test: Pre-emergence herbicidal action against ALOMY; type: in vivo, Alopecurus myosuroides; conditions: pre-emergence
# Outline: as §1
# POLCO = test: Pre-emergence herbicidal action against POLCO; type: in vivo, Polygonum convolvulus; conditions: Fallopia convolvulus, 504 h
# Outline: as §1
# STEME [19] = test: Pre-emergence herbicidal action against STEME; type: in vivo, Stellaria media
# Outline: as §1
# VIOTR [20] = test: Post-emergence herbicidal action against VIOTR; type: in vivo, Viola tricolor
# Outline: as §2
# VERPE [21] = test: Pre-emergence herbicidal action against VERPE; type: in vivo, Veronica persica; conditions: dosage 80 g/ha
# Outline: as §1
# PHBPU [22] = test: Pre-emergence herbicidal action against PHBPU; type: in vivo, Pharbitis purpurea; conditions: dosage 80 g/ha
# Outline: as §1
# [23] = 80 g/ha, scored visually after 3 weeks vs untreated controls (100% = plants have died, 0% = like control plants)
structure (smiles),measurement,setting,value
CCNC(=O)c1c(C(F)(F)F)ccc(C(=O)Nc2nnnn2C)c1Br [Example 1-208],pest or weed control at 80 g/ha,"AVEFA [1]; Avena fatua, 504 h, 80 g/ha",100%
same,pest or weed control at 20 g/ha,"AVEFA [1]; Avena fatua, 504 h, 20 g/ha, scored visually after 3 weeks, 100% = plants have died, 0% = like control plants",80%
same,pest or weed control at 80 g/ha,"HORMU; Hordeum murinum, 504 h",80%
same,pest or weed control at 20 g/ha,ALOMY [2],80%
same,pest or weed control at 20 g/ha,"AMARE [3]; Amaranthus retroflexus, 504 h, 20 g/ha, scored visually after 3 weeks vs untreated controls, 100% = plants have died, 0% = like control plants",100%
same,pest or weed control at 80 g/ha,"AMARE [3]; Amaranthus retroflexus, 504 h, 80 g/ha, scored visually after 3 weeks vs untreated controls, 100% = plants have died, 0% = like control plants",100%
same,pest or weed control at 5 g/ha,DIGSA [4]; 5 g/ha,80%
same,pest or weed control at 20 g/ha,DIGSA [4]; 20 g/ha,90%
same,pest or weed control at 20 g/ha,"STEME [5]; Stellaria media, 504 h, 20 g/ha",90%
same,pest or weed control at 5 g/ha,"STEME [5]; Stellaria media, 504 h, dosage 5 g/ha",90%
same,pest or weed control at 20 g/ha,"AMARE [6]; Amaranthus retroflexus, 504 h",100%
same,pest or weed control at 20 g/ha,SETVI [7]; dosage 20 g/ha,100%
same,pest or weed control at 80 g/ha,SETVI [7]; dosage 80 g/ha,100%
same,pest or weed control at 5 g/ha,"ABUTH [8]; Abutilon theophrasti, 504 h, dosage 5 g/ha",80%
same,pest or weed control at 20 g/ha,"ABUTH [8]; Abutilon theophrasti, 504 h, dosage 20 g/ha",90%
same,pest or weed control at 5 g/ha,PHBPU [9]; dosage 5 g/ha,80%
same,pest or weed control at 20 g/ha,PHBPU [9]; dosage 20 g/ha,90%
same,pest or weed control at 5 g/ha,SETVI [10]; dosage 5 g/ha,80%
same,pest or weed control at 20 g/ha,SETVI [10]; dosage 20 g/ha,80%
same,pest or weed control at 20 g/ha,"MATIN [11]; Tripleurospermum inodorum, 504 h, dosage 20 g/ha",90%
same,pest or weed control at 80 g/ha,"MATIN [11]; Tripleurospermum inodorum, 504 h, dosage 80 g/ha",100%
same,pest or weed control at 80 g/ha,"ECHCG; Echinochloa crus-galli, 504 h",100%
same,pest or weed control at 20 g/ha,"AVEFA [12]; Avena fatua, 504 h",90%
same,pest or weed control at 80 g/ha,"ABUTH [13]; Abutilon theophrasti, 504 h, 80 g/ha, scored visually after 3 weeks vs untreated controls (100% = plants have died, 0% = like control plants)",100%
same,pest or weed control at 20 g/ha,"ABUTH [13]; Abutilon theophrasti, 504 h, dosage 20 g/ha, scored visually after 3 weeks vs untreated controls, 100% = plants have died, 0% = like control plants, read-out: Pre-emergence action against ABUTH (herbicidal activity in percent)",100%
same,pest or weed control at 20 g/ha,"DIGSA [14]; Digitaria sanguinalis, 504 h, dosage 20 g/ha",100%
same,pest or weed control at 80 g/ha,"DIGSA [14]; Digitaria sanguinalis, 504 h, dosage 80 g/ha",100%
same,pest or weed control at 20 g/ha,"MATIN [15]; Tripleurospermum inodorum, 504 h",80%
same,pest or weed control at 20 g/ha,"VIOTR [16]; Viola tricolor, 504 h, dosage 20 g/ha",100%
same,pest or weed control at 80 g/ha,"VIOTR [16]; Viola tricolor, 504 h, dosage 80 g/ha",100%
same,pest or weed control at 20 g/ha,"VERPE [17]; Veronica persica, 504 h",80%
same,pest or weed control at 80 g/ha,"ALOMY [18]; Alopecurus myosuroides, 504 h, 80 g/ha, scored visually after 3 weeks vs untreated controls (100% = plants have died, 0% = like control plants)",100%
same,pest or weed control at 20 g/ha,"ALOMY [18]; Alopecurus myosuroides, 504 h, 20 g/ha, scored visually after 3 weeks, 100% = plants have died, 0% = like control plants",80%
same,pest or weed control at 20 g/ha,POLCO; dosage 20 g/ha,80%
same,pest or weed control at 80 g/ha,POLCO; dosage 80 g/ha,90%
same,pest or weed control at 20 g/ha,"STEME [19]; Stellaria media, 504 h, dosage 20 g/ha",100%
same,pest or weed control at 80 g/ha,"STEME [19]; Stellaria media, 504 h, dosage 80 g/ha",100%
same,pest or weed control at 5 g/ha,"VIOTR [20]; Viola tricolor, 504 h, 5 g/ha",80%
same,pest or weed control at 20 g/ha,"VIOTR [20]; Viola tricolor, 504 h, 20 g/ha",100%
CCCn1nnnc1NC(=O)c1ccc(C(F)(F)F)c(C(=O)NC(C)=O)c1Cl [Example 3-337],Pre-emergence action against AVEFA in %,AVEFA [1]; 80 g/ha,100%
same,Pre-emergence action against HORMU in %,HORMU,100%
same,Pre-emergence action against VERPE in %,VERPE [21],100%
same,Pre-emergence action against AMARE in %,"AMARE [3]; 20 g/ha, scored visually after 3 weeks vs untreated controls, 100% = plants have died, 0% = like control plants",100%
same,Pre-emergence action against AMARE in %,AMARE [3]; [23],100%
same,Post-emergence action against STEME in %,STEME [5]; 20 g/ha,100%
same,Post-emergence action at 20 g/ha against AMARE in %,AMARE [6],100%
same,Post-emergence action against ABUTH in %,ABUTH [8]; dosage 5 g/ha,80%
same,Post-emergence action against ABUTH in %,ABUTH [8]; dosage 20 g/ha,80%
same,Pre-emergence action against PHBPU in %,PHBPU [22],90%
same,Pre-emergence action against MATIN in %,MATIN [11]; dosage 80 g/ha,100%
same,Pre-emergence action against ECHCG in %,ECHCG,90%
same,Post-emergence action at 20 g/ha against AVEFA in %,AVEFA [12],80%
same,Pre-emergence action against ABUTH (herbicidal activity),ABUTH [13]; [23],100%
same,Pre-emergence action against ABUTH (herbicidal activity in percent),"ABUTH [13]; dosage 20 g/ha, scored visually after 3 weeks vs untreated controls, 100% = plants have died, 0% = like control plants",100%
same,Pre-emergence action against DIGSA in %,DIGSA [14]; dosage 20 g/ha,90%
same,Pre-emergence action against DIGSA in %,DIGSA [14]; dosage 80 g/ha,100%
same,Post-emergence action against MATIN in %,MATIN [15],80%
same,Pre-emergence action against VIOTR in %,VIOTR [16]; dosage 20 g/ha,100%
same,Pre-emergence action against VIOTR in %,VIOTR [16]; dosage 80 g/ha,100%
same,Post-emergence action against VERPE in %,VERPE [17],90%
same,Pre-emergence action against ALOMY (herbicidal activity),ALOMY [18]; [23],100%
same,Pre-emergence action against STEME in %,STEME [19]; dosage 80 g/ha,100%
same,Post-emergence action against VIOTR in %,VIOTR [20]; 20 g/ha,100%

# Reference: patent US12655116B2, “Substituted isophthalic acid diamides” (Bayer Aktiengesellschaft, priority 2020, dated 2026)
